Experimental data taken from US5051253A, “Use of polyacrylates to reduce proteolytic activity in the human intestinal tract” (Reckitt & Colman Products Limited, priority 1988, dated 1991).
Where two headings read alike, the source gives them in different places.

System: faecal proteolytic activity
Experiment: Human faecal proteolytic activity (in-vitro), succinyl albumin substrate
Format: biochemical
Description: Human faecal extracts (from asymptomatic volunteers) were obtained by suspending samples of stool in 4 volumes of M/15M KH2 PO4 /Na2 HPO4 pH 7.5 containing 50 mM NaCl and centrifuging at 10,000 g for 15 minutes at 4° C. The supernatant was retained as the faecal extract.
Proteolytic activity was measured using a modification of the method of Lin et al, J.Biol.Chem. 244 (4), 789-793 (1969), i.e. a sensitive trinitrobenzene sulphonic acid assay for formation of new peptide N-terminals using succinyl albumin as substrate. Faecal extract containing one unit of protease activity (equivalent to 1 μg trypsin) was mixed with 0.5 ml buffer (M/15 phosphate pH 7.5) or inhibitor. Substrate (0.5 ml, 8 mgml^-1 succinyl albumin) was added to start the reaction and samples were incubated for 30 minutes at 37° C. Four per cent (w/v) sodium bicarbonate (0.5 ml) and 0.05% (w/v) trinitrobenzene sulphonic acid were added to trinitrophenylate the free amino groups formed and samples were incubated at 50° C. for 10 minutes to develop colour.
10% (w/v) Sodium dodecyl sulphate (0.5 ml) and 1M HCl (0.25 ml) were added to complete the reaction. Absorbance at 340 nm was measured. All samples were compared with heat inactivated faecal extract controls (100° C., 10 minutes).
A linear increase in N-terminals formed by proteolytic cleavage of peptide bonds was found over the first 30 minutes of digestion. […] Proteolytic activity in faecal extracts against succinyl albumin was inhibited by soybean trypsin inhibitor (1 μg) and P.M.S.F. (1 mM) but not by iodoacetamide (50 mM) or Na2 E.D.T.A. (10 mM). In view of this, levels of faecal protease activity were subsequently quantified as equivalents of porcine pancreatic trypsin activity by weight.

## O=C(O)CN(CCN(CC(=O)O)CC(=O)O)CC(=O)O [Na2 E.D.T.A.]
  Inhibition of proteolytic activity in faecal extracts against succinyl albumin: not

## O=S(=O)(F)Cc1ccccc1 [P.M.S.F., phenylmethylsulphonyl fluoride]
1 mM
  Inhibition of proteolytic activity in faecal extracts against succinyl albumin: inhibited

## NC(=O)CI [iodoacetamide]
50 mM
  Inhibition of proteolytic activity in faecal extracts against succinyl albumin: not

B1: soybean trypsin inhibitor (protein, UniProt P01070 25-205, looked up)
Trypsin inhibitor A: DFVLDNEGNPLENGGTYYILSDITAFGGIRAAPTGNERCPLTVVQSRNELDKGIGTIISSPYRIRFIAEGHPLSLKFDSFAVIMLCVGIPTEWSVVEDLPEGPAVKIGENKDAMDGWFRLERVSDDEFNNYKLVFCPQQAEDDKCGDIGISIDHDDGTRRLVVSKNKPLVVQFQKLDKESL
1 μg
  Inhibition of proteolytic activity in faecal extracts against succinyl albumin: inhibited
